Data from patent US7071179B2, “Method of locking 1α-OH of vitamin D compounds in axial orientation” (Wisconsin Alumni Research Foundation, priority 1998, dated 2006).

Columns and labels:
[1] = biological testing of 10,19-dihydrovitamin D3 compounds, in vivo biological response; details: compared among the 1α,25-dihydroxy-10,19-dihydrovitamin D3 compounds tested
[2] = test system: intestinal calcium transport; assay: intestinal calcium transport activity; details: in vivo

**Q.** For CC(CCCC(C)(C)O)C1CCC2C(=CC=C3CC(O)CC(O)C3C)CCCC21C [1α,25-dihydroxy-10(S), 19-dihydrovitamin D3], which “in vivo biological response” value [1] is on record?
**A.** greatest in vivo biological response

**Q.** And the “activity on intestinal calcium transport” value [2]?
**A.** very significant activity
